Biological target: T1, iPLA2β (Group VIA Ca^2+-independent phospholipase A2) (Rattus norvegicus, UniProt P97570)
T1 construct: gene Pla2g6; iPLA2β overexpressed in INS-1 insulinoma cells (OE), cytosol
T1 sequence (P97570 1-807): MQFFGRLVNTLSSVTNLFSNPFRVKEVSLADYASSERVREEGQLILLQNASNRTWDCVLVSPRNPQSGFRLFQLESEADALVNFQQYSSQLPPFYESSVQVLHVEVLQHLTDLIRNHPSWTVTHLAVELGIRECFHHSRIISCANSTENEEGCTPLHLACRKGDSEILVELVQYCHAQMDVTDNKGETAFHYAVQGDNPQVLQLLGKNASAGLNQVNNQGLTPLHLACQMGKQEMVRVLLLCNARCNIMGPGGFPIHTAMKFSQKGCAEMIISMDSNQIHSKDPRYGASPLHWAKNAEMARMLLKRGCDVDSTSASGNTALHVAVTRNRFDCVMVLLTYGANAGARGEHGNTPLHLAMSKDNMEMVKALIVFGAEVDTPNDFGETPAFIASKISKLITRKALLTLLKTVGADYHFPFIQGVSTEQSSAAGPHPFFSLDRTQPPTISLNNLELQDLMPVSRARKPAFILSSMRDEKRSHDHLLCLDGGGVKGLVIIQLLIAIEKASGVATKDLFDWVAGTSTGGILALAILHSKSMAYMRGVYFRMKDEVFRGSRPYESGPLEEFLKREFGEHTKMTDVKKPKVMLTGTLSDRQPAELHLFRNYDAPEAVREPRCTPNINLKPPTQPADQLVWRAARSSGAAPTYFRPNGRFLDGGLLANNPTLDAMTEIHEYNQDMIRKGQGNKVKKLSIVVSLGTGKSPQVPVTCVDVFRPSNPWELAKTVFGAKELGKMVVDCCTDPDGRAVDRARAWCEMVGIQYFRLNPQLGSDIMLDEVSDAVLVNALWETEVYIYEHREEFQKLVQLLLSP
Assay: radioactive PLA2 activity assay ([…]-PAPC) in cytosol of iPLA2β-overexpressing INS-1 cells
Format: biochemical

| IC50 | Compound |
| --- | --- |
| ~0.05 µM | O=C(CCCCc1ccc2ccccc2c1)C(F)(F)F [FKGK18, 1,1,1-trifluoro-6-(naphthalen-2-yl)hexan-2-one] |
| ~3 µM | O=C1O/C(=C/Br)CC[C@@H]1c1cccc2ccccc12 [R-BEL, (E)-6-(bromo-methylene) tetrahydro-3-(1-naphthalenyl)-2H-pyran-2-one] |

Reference: paper PMC3748103, “Characterization of FKGK18 as Inhibitor of Group VIA Ca^2+-Independent Phospholipase A2 (iPLA2β): Candidate Drug for Preventing Beta-Cell Apoptosis and Diabetes” (PLoS ONE, 2013)
